Laboratory results taken from US20260263563A1, “Method of Treatment of a Thoracolumbar Deformity in a Human Subject with Achondroplasia” (Ascendis Pharma Growth Disorders A/S, priority 2023, published 2026).
Read-outs that look alike come from different tables or passages of the source.

Columns and labels:
[1] = tested on: prepubertal children with achondroplasia; conditions: for AGV: 100 μg CNP-38/kg/week group
Protocol: The study enrolled a minimum of 60 male and female prepubertal children with ACH aged 2 to 10 years old. The clinical trial is listed on www.clinicaltrials.gov under the ClinicalTrials.gov Identifier: NCT04085523. The objectives of the study were as follow:
This trial is a multicenter trial consisting of two treatment periods.
Height of subjects enrolled in the study of Example 3 was measured using a wall-mounted stadiometer. The same equipment was used at all visits for the same child. All instruments were calibrated as required by local requirements or per instrument manufacturer guidance prior to use.

[2] = tested on: prepubertal children with achondroplasia; conditions: for Overall Scoliosis Incidence, Baseline: baseline (prior to treatment)
Protocol: X-rays (radiographs) were taken from subjects in the placebo group and cohort 4 in the Phase 2 Study trials, including those at the thoracolumbar spine (lateral and anterior-posterior/posterior-anterior (AP/PA)) and lower extremity (AP). The lateral X-rays (taken from the placebo group and the 100 μg/kg (cohort 4 group) at baseline and after 52 weeks of treatment were analyzed.
Methodology: From the spine radiographs, aspects related to spinal stenosis, spinal curvature, and spinal height were measured. To assess the size of the spinal canal in the lumbar region (L1-L5), which is smaller in ACH, interpedicular distance (IPD) and pedicle width (PW) are measured on the anterior-posterior/posterior-anterior (AP/PA) and lateral radiographs, respectively. At each level of the lumbar spine, IPD is measured as the distance between the most medial aspects of the pedicles of the spinal canal, and PW is measured from the posterior vertebral body line to the posterior laminar line. Scoliosis is assessed by measuring Cobb angles in the proximal thoracic, main thoracic, and lumbar regions of the AP/PA spine radiograph. On the lateral spine radiograph, Cobb angles for kyphosis are assessed in the thoracic (TK) and thoracolumbar (TLK) region and for lordosis in the lumbar region (LL). Spinal heights (both thoracic and total) are measured on the AP/PA spine radiograph. • Scoliosis: Cobb angles of the proximal thoracic (T1-T3), main thoracic (T2-L1), and lumbar (L1-L5) regions • Kyphosis: Cobb angles of the thoracic (T5-T12, TK) and thoracolumbar (T10-L2, TLK) regions • Lordosis: Cobb angles of the lumbar (L1-L5, LL) region • Thoracic spine height (T1 to T12) and Total spine height (T1 to S1)
As many of these parameters vary naturally during growth, published normative data from both healthy and ACH populations are being utilized to calculate Z-scores where possible. For spine kyphosis, data from Lee et al., 2012 (Journal of spinal disorders & techniques. 2012; 25(8):E259-63) and Abousamra et al. 2019 (Spine Deform. 2019 January; 7(1):163-170) were used to calculate Z-scores based on data from healthy and ACH children.
A decrease of the (Posterior Height/Middle Width) ratio is indicative of a normalization of vertebral morphology.

[3] = tested on: prepubertal children with achondroplasia; conditions: 50 and 100 μg/kg vs placebo, 52 weeks
Protocol: In the phase 2 study reported in Example 4, X-rays of the hand were taken at the placebo group (6 patients assessed), cohort 3, 50 μg/kg (9 patients assessed) and cohort 4, 100 μg/kg (7 patients assessed) and the Hand Metacarpal/Phalangeal Profile (MCPP) was assessed.

[4] = tested on: healthy adult male subjects
[5] = tested on: binding antibodies against CNP-38 (and CNP-22)
Protocol: All subjects in the trial are being monitored for binding and, if relevant, neutralizing antibodies to CNP. […] Samples are collected in all subjects at screening visit, prior to initial dose, and post-dose at 1, 3, 6, 9 months+every 3 months for the duration of the study. Samples are analyzed using a fully validated anti-CNP antibody assay.
Prior to analysis of clinical samples, the assay was fully validated following regulatory requirements from both EMAA and FDA. In this approach, biotinylated and ruthenylated CNP-38 were prepared as a master mix. Samples were incubated at minimum required dilution (MRD) in the master mix to form complex and then plated on an MSD streptavidin plate where the biotinylated CNP-38 could also bind. The samples were then detected by the ruthenium labelled CNP-38 within the bound complexes, using an MSD 5600 plate reader. The presence of anti-drug antibody present was determined by comparing the signal to a statistically derived threshold, the assay cut point.

[6] = 50 and 100 μg/kg vs placebo, 52 weeks
[7] = cohorts 3 and 4 vs placebo, 52 weeks, initial data
[8] = single patient, after 52 weeks treatment
[9] = single patient, after 52 weeks treatment (100 μg/kg/week)
[10] = single patient, week 52, 100 μg/kg/week

With Navepegritide [Compound (1)] the “AGV, LS Mean” value ([1]; 6 μg/kg/week, 52 weeks, n = 10, 95% CI [3.34, 4.84], p 0.6004 vs pooled placebo (4.35)) was 4.09, n = 10 cm/year, the “Δ Height SDS (ACH-specific height SDS), LS Mean” value (“Δ Height SDS” for short) ([1]; 6 μg/kg/week, n = 10, 95% CI [−0.26, 0.17], p 0.8207 vs pooled placebo (−0.08)) was −0.04, n = 10 and the “AGV, LS Mean” value ([1]; 20 μg/kg/week, 52 weeks, n = 11, 95% CI [3.82, 5.22], p 0.7022 vs pooled placebo) was 4.52, n = 11 cm/year. The “Δ Height SDS” value ([1]; 20 μg/kg/week, n = 11, 95% CI [−0.17, 0.23], p 0.4107 vs pooled placebo) was 0.03, n = 11, the “AGV, LS Mean” value ([1]; 50 μg/kg/week, 52 weeks, n = 10, 95% CI [4.43, 5.90], p 0.0849 vs pooled placebo) was 5.16, n = 10 cm/year and the “Δ Height SDS” value ([1]; 50 μg/kg/week, n = 10, 95% CI [−0.10, 0.32], p 0.1660 vs pooled placebo) was 0.11, n = 10. For the same substance, the AGV ([1]; 0 to 6 months) was 5.167 cm/year, the AGV ([1]; time period 6 to 12 months) was 5.696 cm/year and the “AGV, LS Mean” value ([1]; 100 μg/kg/week, 52 weeks, n = 11, 95% CI [4.74, 6.11], p 0.0218 vs pooled placebo) was 5.42, n = 11 cm/year. The “AGV, LS Mean” value ([1]; 100 μg/kg/week, 52 weeks, n = 11, 95% CI [4.74, 6.11], p 0.0218 vs pooled placebo, listed as compound (1)) was 5.42 cm/year, the “Δ Height SDS” value ([1]; 100 μg/kg/week, n = 11, 95% CI [0.02, 0.41], p 0.0283 vs pooled placebo) was 0.22, n = 11 and the “growth in Open Label Extension” value ([1]; 46 children switched from placebo or lower dose to 100 μg/kg/week, after one year) was “improved growth”. The “AGV, LS Mean” value ([1]; Age < 5 years old, 6 μg/kg/week, n = 3, 95% CI [2.52, 6.10]) was 4.31, n = 3 cm/year, the “AGV, LS Mean” value ([1]; Age < 5 years old, 20 μg/kg/week, n = 5, 95% CI [3.30, 6.15]) was 4.72, n = 5 cm/year and the “AGV, LS Mean” value ([1]; Age < 5 years old, 50 μg/kg/week, n = 5, 95% CI [3.62, 6.52]) was 5.07, n = 5 cm/year. For the same substance, the “AGV, LS Mean” value ([1]; Age < 5 years old, 100 μg/kg/week, n = 3, 95% CI [4.03, 7.87]) was 5.95, n = 3 cm/year, the “AGV, LS Mean” value ([1]; Age ≥ 5 years old, 6 μg/kg/week, n = 7, 95% CI [2.87, 4.71]) was 3.79, n = 7 cm/year and the “AGV, LS Mean” value ([1]; Age ≥ 5 years old, 20 μg/kg/week, n = 6, 95% CI [3.43, 5.15]) was 4.29, n = 6 cm/year. For the same substance, the “AGV, LS Mean” value ([1]; Age ≥ 5 years old, 50 μg/kg/week, n = 5, 95% CI [4.39, 6.26]) was 5.33, n = 5 cm/year, the “AGV, LS Mean” value ([1]; Age ≥ 5 years old, 100 μg/kg/week, n = 8, 95% CI [4.35, 5.90]) was 5.12, n = 8 cm/year and the “TLK Z-score (Healthy), Week 52 Change from Baseline (Mean ± SD)” value ([2]; 100 μg/kg/week, n 5, p < 0.05 vs placebo (ANCOVA), placebo −0.19 (0.318)) was −1.004 (0.614). For the same substance, the “TLK Z-score (ACH), Week 52 Change from Baseline (Mean ± SD)” value ([2]; 100 μg/kg/week, n 6, p < 0.05 vs placebo (ANCOVA), placebo −0.052 (0.242)) was −0.416 (0.412), the “TLK, Week 52 Change from Baseline (Mean ± SD)” value ([2]; 100 μg/kg/week, n 6, placebo −[…] (2.61)) was −7.17 (4.94) degrees and the “interpedicular distance (IPD)” value [2, 6] was “no clear effect”. For the same substance, the “pedicular width (PW)” value [2, 6] was “trend for patients on treatment to have an increase”, the “Overall Scoliosis Incidence, After 52 weeks of Treatment” value ([2]; Cohort 3, 50 μg/kg) was 0 out of 9 and the “Overall Scoliosis Incidence, Baseline” value ([2]; Cohort 3, 50 μg/kg) was 3 out of 9. The “Overall Scoliosis Incidence, After 52 weeks of Treatment” value ([2]; Cohort 4, 100 μg/kg) was 1 out of 9, the “Overall Scoliosis Incidence, Baseline” value ([2]; Cohort 4, 100 μg/kg) was 3 out of 9 and the thoracolumbar kyphosis ([2]; cohort 4 after 52 weeks of treatment) was “statistically significant reduction”. For the same substance, the “kyphosis Cobb Angle” value [2, 7] was “trend for a dose dependent reduction”, the “scoliosis main thoracic Cobb Angle” value [2, 7] was “trend for a dose dependent reduction” and the lumbar lordosis ([2]; phase 2 and open label extension trial) was “slight trend for an increase”. The “Patient Angle, thoracic kyphosis (TK)” value ([2]; single patient one, baseline) was 11.6 degrees, the “L1 vertebra LW, change from baseline” value [2, 8] was “Δ4.1 mm” and the “L1 vertebra MH, change from baseline” value [2, 8] was “Δ1.4 mm”. The “L1 vertebra MW, change from baseline” value [2, 8] was “Δ5.9 mm”, the “L1 vertebra PH, change from baseline” value [2, 8] was “Δ1.5 mm” and the “L1 vertebra LW (Lower Width)” value [2, 9] was 22.9 mm. The “L1 vertebra MH (Middle Height)” value [2, 9] was 15.0 mm, the “L1 vertebra MW (Middle Width)” value [2, 9] was 14.6 mm and the “L1 vertebra PH (Posterior height)” value [2, 9] was 15.8 mm. The “L1 vertebra PH/MW” value [2, 9] was 108 mm, the “L1 vertebra PH/MW, change from baseline” value ([2]; single patient, after 52 weeks treatment, [~80@T12/12]) was “Δ−56 [~80@T12/12] mm” and the “L1 vertebra LW (Lower Width)” value ([2]; single patient, baseline) was 18.8 mm. The “L1 vertebra MH (Middle Height)” value ([2]; single patient, baseline) was 13.6 mm, the “L1 vertebra MW (Middle Width)” value ([2]; single patient, baseline) was 8.7 mm and the “L1 vertebra PH (Posterior height)” value ([2]; single patient, baseline) was 14.3 mm. For the same substance, the “L1 vertebra PH/MW” value ([2]; single patient, baseline) was 164 mm, the “Patient Angle, lumbar lordosis (LL)” value ([2]; single patient, baseline) was 58.3 degrees and the “Patient Angle, thoraco-lumbar kyphosis (TLK)” value ([2]; single patient, baseline) was 24.0 degrees. For the same substance, the “apical wedging and shape of L1 vertebra on radiographs” value ([2]; single patient, baseline vs 52 weeks of treatment) was “noted decrease in apical wedging and normalization of the L1 vertebra”, the “Patient Z-score TK3” value ([2]; single patient, baseline, reference population 3 (Abousamra 2019) 20.0 ± 12.5) was −0.7 and the “Patient Z-score TLK3” value ([2]; single patient, baseline, reference population 3, 18.5 ± 13.2) was 0.4. For the same substance, the “Patient Z-score LL3” value ([2]; single patient, baseline, reference population 3, 66.7 ± 17.5) was −0.5, the “Patient Z-score TLK2” value ([2]; single patient, baseline, reference population 5.0 ± 7.2) was 2.6 and the “Patient Z-score TK2” value ([2]; single patient, baseline, reference population 31.6 ± 9.2) was −2.2. For the same substance, the “Patient Z-score LL2” value ([2]; single patient, baseline, reference population 44.4 ± 9.4) was 1.5, the “Patient Angle, lumbar lordosis (LL)” value [2, 10] was 60.2 degrees and the “Patient Angle, thoracic kyphosis (TK)” value [2, 10] was 12.6 degrees. The “Patient Angle, thoraco-lumbar kyphosis (TLK)” value [2, 10] was 9.1 degrees, the “Patient Z-score TK2” value ([2]; single patient, week 52, 100 μg/kg/week, reference 31.6 ± 9.2) was −2.1 and the “Patient Z-score TLK2” value ([2]; single patient, week 52, reference 5 ± 7.2) was 0.6. The “Patient Z-score LL2” value ([2]; single patient, week 52, reference 44.4 ± 9.4) was 1.7, the “Patient Z-score TLK3” value ([2]; single patient, week 52, reference population 3, 18.5 ± 12.0) was −0.6 and the “Patient Z-score TK3” value ([2]; single patient, week 52, reference population 3, 19.7 ± 13.2) was −0.5. The “Patient Z-score LL3” value ([2]; single patient, week 52, reference population 3, 66.0 ± 15.5) was −0.4, the hand length [3] was “clear trend for dose dependent increase” and the “blood pressure, heart rate, or safety laboratory test results” value ([4]; all investigated doses) was “No clinically relevant dose-dependent trends were observed”. The “mean apparent t1/2 of free CNP-38” value ([4]; single s.c. dose up to 150 μg CNP/kg, dose-independent) was 120 h, the immunogenic response ([4]; single s.c. doses) was “no evidence of immunogenic response” and the local tolerability findings ([4]; single s.c. doses) was “predominantly mild to moderate redness”. The “most commonly reported (≥10% of subjects) treatment-emergent adverse events” value ([4]; single s.c. doses) was “headache, contact dermatitis, postural dizziness, (orthostatic) tachycardia, dizziness, and orthostatic hypotension”, the “serious adverse effects or deaths” value ([4]; single s.c. doses) was “no serious adverse effects (AEs) or deaths reported” and the “severity of most TEAEs” value ([4]; single s.c. doses) was “mild or moderate”. The tolerability ([4]; single s.c. doses up to 150 μg CNP/kg, all investigated doses) was “generally well tolerated”, the anti-CNP binding antibodies ([5]; 1 to 9 months of repeated weekly exposure) was “No anti-CNP binding antibodies have been detected” and the “treatment emergent anti-CNP antibodies” value ([5]; 57 patients followed for up to 65 weeks) was “no treatment emergent anti-CNP antibodies were detected”. The “post-dose samples, anti-CNP antibodies” value ([5]; samples at 1, 3, 6, 9 months + every 3 months) was “confirmed negative”.
